Columns and labels:
[1] = system: Pseudomonas aeruginosa planktonic cells; experiment: killing of planktonic cells in the absence of light, viable plate counts; assay type: cell-based; details: 37° C.
Protocol: ZnPFPTMP was added to cell suspensions at the concentrations shown in FIG. 5 (0 to 100 μM) and incubated at 37° C. in the absence of light. […]

[2] = system: Pseudomonas aeruginosa biofilm associated cells; experiment: effect on biofilms in the dark; assay type: cell-based
[3] = system: Staphylococcus aureus; experiment: killing of bacteria in the absence of light, plated to determine viability; assay type: cell-based
Text: Additionally, the ability of ZnPFPTMP to affect killing of bacteria in the absence of light was further tested against the Gram-positive pathogenic bacterium Staphylococcus aureus. This bacterium was chose to evidence the ability of the porphyrins of general formula (I) to treat/kill methicillin-resistant Staphylococcus aureus (MRSA) without exposing the scientists to MRSA directly. Moreover, it is believed that the mechanism used by the porphyrins of general formula (I) is unlikely to involve the methicillin resistance mechanism. S. aureus cells grown in LB medium were washed and re-suspended on 0.2% peptone and exposed to either 1.5 μM or 3.0 μM Zeke in sterile water. Cell suspensions were sampled every 30 minutes for 3 hours and plated to determine viability. […] At 1.5 μM Zeke's complete elimination of viable cells of S. aureus took only two hours.

[4] = system: calf thymus CT-DNA; experiment: DNA titration by absorption spectra; assay type: binding; details: pH 7.2 buffer, ionic strength 0.1 M
Protocol: A sample of ZnPFPTMP from Part C was tested by various methods and techniques to determine how this compound may be utilized. In one test ZnPFPTMP was titrated into a DNA sample to determine ZnPFPTMP's affinity for binding to DNA. This test was conducted by measuring the absorption spectra of pH 7.2 buffer solutions (ionic strength=0.1 M) of ZnPFPTMP in the presence of increasing amounts of calf thymus CT-DNA.

[5] = system: circular plasmid DNA (pUC18); experiment: photocleavage of plasmid DNA in the presence of oxygen, gel electrophoresis; assay type: biochemical; details: 50:1 base pair to complex ratio
Protocol: To appreciate the significance of the increased absorption of ZnPFPTMP in the PDT window, comparative photocleavage studies of plasmid DNA under normal conditions (i.e., in the presence of oxygen) were conducted for ZnPFPTMP and its free-base porphyrin. […] In FIG. 3, gel electrophoresis of circular plasmid DNA (pUC18) in the absence (lane 1) and presence (lanes 2-10) of unmetallated porphyrin (A) and ZnPFPTMP (B) at a 50:1 base pair to complex ratio are shown. Samples were irradiated with a 300 W mercury arc lamp equipped with a long pass filter, cutting off wavelengths below 550 nm, and were taken at 2 minute intervals.
ZnPFPTMP is very reactive at such low energy wavelengths of light.

[6] = system: circular plasmid DNA (pUC18); experiment: photocleavage of plasmid DNA in the absence of oxygen, gel electrophoresis; assay type: biochemical; details: 10:1 base pair to complex ratio, wavelengths above 420 nm
Protocol: Referring now to FIG. 4, photocleavage studies based on a 10 to 1 base pairs to ZnPFPTMP was irradiated with a 420 nm filter and samples were taken at 10 minute intervals. In FIG. 3, gel electrophoresis of circular plasmid DNA (pUC18) in the absence (lane 1) and presence (lanes 2-10) of ZnPFPTMP at a 10:1 base pair to complex ratio is shown. Samples were irradiated with a 300 W mercury arc lamp equipped with a long pass filter, cutting off wavelengths below 420 nm in the absence of oxygen, and were taken at 10 minute intervals. Accordingly, ZnPFPTMP can be effective under hypoxic conditions.

meso-5,10,15-tris(N-methyl-4-pyridyl)-20-(pentafluorophenyl)porphyrinatozinc(II), tris-p-toluene sulfonate [ZnPFPTMP]
killing at two hours ([1]; 2 hours): substantial killing
MLC (minimum lethal concentration) ([1]; 7 hours, no survivors): 25 µM
biofilm formation ([2]; added to cell suspensions incubated in the dark): Biofilms were prevented
log reduction in preformed biofilms ([2]; preformed biofilms exposed in the dark (data not shown)): 2.7 log
time to complete elimination of viable cells ([3]; 1.5 μM): two
log reduction in viable cells ([3]; 3.0 μM, after 30 min): 5.5 log
viable cells remaining ([3]; 3.0 μM, after 60 min): no viable cells remained
binding constants to DNA [4]: greater than 10^6
band intensity compared to free-base porphyrin ([5]; after 2 minutes versus free-base porphyrin after 20 minutes, above 550 nm): more intense bands
photonicking of plasmid DNA ([5]; after two minutes, wavelengths above 550 nm, oxygen present): effective compete photonicking
photonicking of DNA in the absence of oxygen [6]: effective at photonicking DNA

— patent US9364537B2, “Transition metal porphyrin complexes and methods of treatment using same” (UNIVERSITY OF DAYTON, priority 2014, dated 2016)
